In assay [1] the test system is Stichococcus bacillaris SAG 379-1a / CCAP 379/1a. Description: Algal efficacy test of dry paint films (modified ASTM 5589, 6-well plates). Type of assay: cell-based. The following applies: for inhibition at 5000 ppm: Stichococcus bacillaris, 504 h; for Total conc: total biocide concentration in paint at which the % inhibition is reported, pass level ≥75% inhibition, single actives: maximum concentration tested, no pass. The procedure:
(§1) These paints were then diluted with an antimicrobial free acrylic/silicone based paint and mixed to prepare targeted concentrations of antimicrobial compounds for the testing. The total biocides concentrations tested were 125, 250, 500, 1000, 2000 and 5000 ppm. After biocides addition or dilution, the paints were mixed 90 seconds with the horse power shaker (AXEL 75M3372/Agitateur 50-10MI) until uniformity was achieved. Paints containing different antimicrobial compounds at the same levels were mixed together in order to obtain the desired ratio of antimicrobial compounds. After one day, the paints were applied to Schleicher & Schuell filter paper at 280 μm wet film thickness and dried for 3 days at room temperature avoiding direct exposure to sunlight. Square discs (1.6 cm×1.6 cm) were cut out from each panel and were used as the substrate for algal efficacy tests. This sample size allowed for an agar border when the sample disc was placed into the well of the test plate.
(§2) Algal efficacy was tested according to modified ASTM 5589 which is a standard accelerated test method for determining resistance of various coatings (including paints) to algal defacement. To accommodate for high-throughput screening, this method was scaled down from petri dishes to 6-well plates. Bold Modified Basal Freshwater Nutrient Solution was used as growth medium. A single coated filter paper coupon was placed with a pair of sterile forceps at the center of the agar plug (on top) with the painted surface facing upwards. Algal inoculums were prepared by mixing equal concentrations (1×10^6 cfu/ml) and equal volumes of exponentially growing algae cultures.
(§3) Each well that contains a tested coupon was inoculated with 1750 μl of algal suspensions (1×10^6 cfu/ml) making sure that the whole surface (paint film as well as the agar surrounding it) was evenly covered. The plates were incubated at room temp (21° C.-25° C.) with cyclic exposure to light and dark phases, for a period of three weeks.
(§4) At the end of the three week incubation period, the samples were scored for percent inhibition regarding visible algal growth compared to the blank sample (0% inhibition).
(§5) The SI is calculated based on F. C. Kull et.
(§6) SI value of <1 in the formula indicates a synergism of the blended biocides exists.
(§7) The minimal targeted inhibition was set at 75%, meaning a coupon with at least 75% algal growth inhibition was considered as a pass.

The test system of the next assay is Chlorella sp. ATCC 7516. The description is as above. The settings on record: for inhibition at 5000 ppm: 504 h; for Total conc: total biocide concentration in paint at which the % inhibition is reported, pass level ≥75% inhibition, single actives: maximum concentration tested, no pass. The format is cell-based. The procedure:
as §1, §2, §3, §4, §5, §6, §7

Like-named read-outs stand apart in the source and are kept apart here.

As a reminder, the inhibition is the relative decrease from the control value, in per cent. Regarding `O=c1[nH]c2c(c(=O)n1C1CCCCC1)CCC2` [Lenacil, 3-cyclohexyl-1,5,6,7-tetrahydrocyclopentapyrimidine-2,4(3H)-dione], the values for the inhibition at 5000 ppm (in assay [1]; with Chlorella sp. ATCC 7516) were 70% and 30%, respectively. Also, the Total conc was 5000 ppm in assay [1] (Stichococcus, 3 weeks) and 5000 ppm in the assay with Chlorella sp. ATCC 7516 (3 weeks).

Consider `CCNc1nc(NC(C)(C)C)nc(SC)n1` [Terbutryn, N^2-tert-butyl-N^4-ethyl-6-methylthio-1,3,5-triazine-2,4-diamine], for which the inhibition at 5000 ppm in assay [1] (Stichococcus, total conc 5000 ppm in paint, visible algal growth vs blank, 3 weeks, read-out: % inhibition) is 35%; in the assay with Chlorella sp. ATCC 7516 (total conc 5000 ppm in paint, visible algal growth vs blank, 3 weeks, read-out: % inhibition), 65%. Moreover, the Total conc in assay [1] (Stichococcus, 3 weeks) came out at 5000 ppm; in the assay on Chlorella sp. ATCC 7516 (3 weeks) it was 5000 ppm.

The values above are taken from patent publication US9526248B2 (Rohm and Haas Company, priority 2012, dated 2016).
